Results published in the supplement of paper PMC11061612.

Experiments:
Experiment in all cases: combination Emax (second highest fraction inhibited in the dose matrix, 72 h); higher = more inhibition; extreme values may be limits of the assay
A704 (Kidney Carcinoma) = tested on: A704 (Kidney Carcinoma)
Procedure, shortened: (§1)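 Bliss excess equals the observed combination effect minus the expected value EA + EB − EA·EB, where EA and EB are the effects of each agent alone. Combination Emax is the second-highest inhibition within the matrix. Inhibition was scaled from CellTiter-Glo 2.0 luminescence, with 0 set by vehicle wells and 1 by blank wells, after 72 hours of two-drug dosing of cells plated in 1536-well plates.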

BT-20 (Breast Carcinoma) = tested on: BT-20 (Breast Carcinoma)
Procedure, shortened: as §1

[1] = tested on: EBC-1 (Squamous Cell Lung Carcinoma)
Procedure, shortened: as §1

EW-13 (Ewing's Sarcoma) = tested on: EW-13 (Ewing's Sarcoma)
Procedure, shortened: as §1

EW-18 (Ewing's Sarcoma) = tested on: EW-18 (Ewing's Sarcoma)
Procedure, shortened: as §1

EW-3 (Ewing's Sarcoma) = tested on: EW-3 (Ewing's Sarcoma)
Procedure, shortened: as §1

[2] = tested on: H-EMC-SS (Chondrosarcoma)
Procedure, shortened: as §1

[3] = tested on: HC-1 (Other Blood Carcinomas)
Procedure, shortened: as §1

[4] = tested on: HSC-2 (Oral Cavity Carcinoma)
Procedure, shortened: as §1

[5] = tested on: HuP-T3 (Pancreatic Carcinoma)
Procedure, shortened: as §1

IMR-5 (Neuroblastoma) = tested on: IMR-5 (Neuroblastoma)
Procedure, shortened: as §1

[6] = tested on: KLE (Endometrial Carcinoma)
Procedure, shortened: as §1

[7] = tested on: MFE-319 (Endometrial Carcinoma)
Procedure, shortened: as §1

NB7 (Neuroblastoma) = tested on: NB7 (Neuroblastoma)
Procedure, shortened: as §1

[8] = tested on: NCI-H1573 (Lung Adenocarcinoma)
Procedure, shortened: as §1

[9] = tested on: NCI-N87 (Gastric Carcinoma)
Procedure, shortened: as §1

RPMI-7951 (Melanoma) = tested on: RPMI-7951 (Melanoma)
Procedure, shortened: as §1

[10] = tested on: SNU-C1 (Colorectal Carcinoma)
Procedure, shortened: as §1

[11] = tested on: TGBC11TKB (Gastric Carcinoma)
Procedure, shortened: as §1

U-87-MG (Glioblastoma) = tested on: U-87-MG (Glioblastoma)
Procedure, shortened: as §1

SMILES: CC1(C)CCC(CN2CCN(c3ccc(C(=O)NS(=O)(=O)c4ccc(NCC5CCOCC5)c([N+](=O)[O-])c4)c(Oc4cnc5[nH]ccc5c4)c3)CC2)=C(c2ccc(Cl)cc2)C1 [Venetoclax] + COc1cc(Nc2ncc3c(n2)-c2ccc(Cl)cc2C(c2c(F)cccc2OC)=NC3)ccc1C(=O)O [Alisertib] (first compound max 1 µM, 7x7, partner max 10 µM)
- combination Emax (A704 (Kidney Carcinoma)): 0.758
- combination Emax (BT-20 (Breast Carcinoma)): 0.499
- combination Emax [1]: 0.436
- combination Emax (EW-13 (Ewing's Sarcoma)): 0.294
- combination Emax (EW-18 (Ewing's Sarcoma)): 0.736
- combination Emax (EW-3 (Ewing's Sarcoma)): 0.847
- combination Emax [2]: 0.658
- combination Emax [3]: 0.861
- combination Emax [4]: 0.732
- combination Emax [5]: 0.337
- combination Emax (IMR-5 (Neuroblastoma)): 1
- combination Emax [6]: 0.635
- combination Emax [7]: 0.395
- combination Emax (NB7 (Neuroblastoma)): 0.556
- combination Emax [8]: 0.378
- combination Emax [9]: 0.335
- combination Emax (RPMI-7951 (Melanoma)): 0.683
- combination Emax [10]: 0.251
- combination Emax [11]: 0.387
- combination Emax (U-87-MG (Glioblastoma)): 0.423

SMILES: CC1(C)CCC(CN2CCN(c3ccc(C(=O)NS(=O)(=O)c4ccc(NCC5CCOCC5)c([N+](=O)[O-])c4)c(Oc4cnc5[nH]ccc5c4)c3)CC2)=C(c2ccc(Cl)cc2)C1 [Venetoclax] + C[C@@H]1COCCN1C2=NC(=NC(=C2)C3(CC3)[S@](=N)(=O)C)C4=C5C=CNC5=NC=C4 [AZD6738] (first compound max 1 µM, 7x7, partner max 10 µM)
- combination Emax (A704 (Kidney Carcinoma)): 0.48
- combination Emax (BT-20 (Breast Carcinoma)): 0.491
- combination Emax [1]: 0.514
- combination Emax (EW-13 (Ewing's Sarcoma)): 0.671
- combination Emax (EW-18 (Ewing's Sarcoma)): 0.67
- combination Emax (EW-3 (Ewing's Sarcoma)): 0.844
- combination Emax [2]: 0.347
- combination Emax [3]: 0.864
- combination Emax [4]: 0.824
- combination Emax [5]: 0.663
- combination Emax (IMR-5 (Neuroblastoma)): 1
- combination Emax [6]: 0.515
- combination Emax [7]: 0.837
- combination Emax (NB7 (Neuroblastoma)): 0.5
- combination Emax [8]: 0.579
- combination Emax [9]: 0.736
- combination Emax (RPMI-7951 (Melanoma)): 0.887
- combination Emax [10]: 0.366
- combination Emax [11]: 0.901
- combination Emax (U-87-MG (Glioblastoma)): 0.596

SMILES: CC1(C)CCC(CN2CCN(c3ccc(C(=O)NS(=O)(=O)c4ccc(NCC5CCOCC5)c([N+](=O)[O-])c4)c(Oc4cnc5[nH]ccc5c4)c3)CC2)=C(c2ccc(Cl)cc2)C1 [Venetoclax] + C[C@@H](Nc1cc(F)cc(F)c1)c1cc(C(=O)N(C)C)cc2c(=O)cc(N3CCOCC3)oc12 [AZD8186] (first compound max 1 µM, 7x7, partner max 3 µM)
- combination Emax (A704 (Kidney Carcinoma)): 0.429
- combination Emax (BT-20 (Breast Carcinoma)): 0.0992
- combination Emax [1]: 0.209
- combination Emax (EW-13 (Ewing's Sarcoma)): 0.322
- combination Emax (EW-18 (Ewing's Sarcoma)): 0.599
- combination Emax (EW-3 (Ewing's Sarcoma)): 0.736
- combination Emax [2]: 0.323
- combination Emax [3]: 0.616
- combination Emax [4]: 0.92
- combination Emax [5]: 0.119
- combination Emax (IMR-5 (Neuroblastoma)): 0.276
- combination Emax [6]: 0.41
- combination Emax [7]: 0.0342
- combination Emax (NB7 (Neuroblastoma)): 0.295
- combination Emax [8]: 0.162
- combination Emax [9]: 0.578
- combination Emax (RPMI-7951 (Melanoma)): 0.496
- combination Emax [10]: 0.063
- combination Emax [11]: 0.203
- combination Emax (U-87-MG (Glioblastoma)): 0.44

SMILES: CC1(C)CCC(CN2CCN(c3ccc(C(=O)NS(=O)(=O)c4ccc(NCC5CCOCC5)c([N+](=O)[O-])c4)c(Oc4cnc5[nH]ccc5c4)c3)CC2)=C(c2ccc(Cl)cc2)C1 [Venetoclax] + Cc1cc2ncnn2cc1Nc1ncc2c(n1)n(C1CCOCC1)c(=O)n2C [AZD7648] (first compound max 1 µM, 7x7, partner max 10 µM)
- combination Emax (A704 (Kidney Carcinoma)): 0.32
- combination Emax (BT-20 (Breast Carcinoma)): 0.374
- combination Emax [1]: 0.26
- combination Emax (EW-13 (Ewing's Sarcoma)): 0.0496
- combination Emax (EW-18 (Ewing's Sarcoma)): 0.455
- combination Emax (EW-3 (Ewing's Sarcoma)): 0.735
- combination Emax [2]: 0.327
- combination Emax [3]: 0.481
- combination Emax [4]: 0.304
- combination Emax [5]: 0.166
- combination Emax (IMR-5 (Neuroblastoma)): 0.282
- combination Emax [6]: 0.444
- combination Emax [7]: 0.26
- combination Emax (NB7 (Neuroblastoma)): 0.0987
- combination Emax [8]: 0.173
- combination Emax [9]: 0.354
- combination Emax (RPMI-7951 (Melanoma)): 0.334
- combination Emax [10]: 0.227
- combination Emax [11]: 0.133
- combination Emax (U-87-MG (Glioblastoma)): 0.354

SMILES: CC1(C)CCC(CN2CCN(c3ccc(C(=O)NS(=O)(=O)c4ccc(NCC5CCOCC5)c([N+](=O)[O-])c4)c(Oc4cnc5[nH]ccc5c4)c3)CC2)=C(c2ccc(Cl)cc2)C1 [Venetoclax] + Cn1cnc2c(F)c(Nc3ccc(Br)cc3Cl)c(C(=O)NOCCO)cc21 [Selumetinib] (first compound max 1 µM, 7x7, partner max 3 µM)
- combination Emax (A704 (Kidney Carcinoma)): 0.158
- combination Emax (BT-20 (Breast Carcinoma)): 0.231
- combination Emax [1]: 0.768
- combination Emax (EW-13 (Ewing's Sarcoma)): 0.213
- combination Emax (EW-18 (Ewing's Sarcoma)): 0.26
- combination Emax (EW-3 (Ewing's Sarcoma)): 0.643
- combination Emax [2]: 0.341
- combination Emax [3]: 0.521
- combination Emax [4]: 0.161
- combination Emax [5]: 0.316
- combination Emax (IMR-5 (Neuroblastoma)): 0.221
- combination Emax [6]: 0.276
- combination Emax [7]: 0.145
- combination Emax (NB7 (Neuroblastoma)): 0.137
- combination Emax [8]: 0.289
- combination Emax [9]: 0.242
- combination Emax (RPMI-7951 (Melanoma)): 0.424
- combination Emax [10]: 0.467
- combination Emax [11]: 0.313
- combination Emax (U-87-MG (Glioblastoma)): 0.223
